The source of these data is patent US20150031668A1, “CHROMAN DERIVATIVES AS TRPM8 INHIBITORS” (AMGEN INC., priority 2013, published 2015).

This assay has as its target T1, human TRPM8 (Homo sapiens, UniProt Q7Z2W7).
T1 construct: expressed in transfected cells; host or cells: Chinese hamster ovary (CHO) cells, T-REx tetracycline-inducible expression system (Invitrogen); co-transfected with pcDNA3.1 aequorin
Put plainly: Luminescence readout assay for measuring intracellular calcium (aequorin, CHO cells expressing human TRPM8; icilin, L-menthol or cold activation). Format: cell-based. Conditions: CHO cells expressing human TRPM8, icilin activation (1 μM), aequorin luminescence; read-out: hTRPM8 IC50. In outline: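 Activation was by 1 μM icilin, 100 μM L-menthol (test compound 2.5 min ahead) or cold buffer below 10° C (compound 1 min ahead). Calcium rise measured as aequorin luminescence in CHO cells with tetracycline-inducible human TRPM8.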
(In general: A change in cytosolic calcium serves as a functional read-out for many receptors and channels.)

SMILES strings stand for the structures.

T1 sequence (Q7Z2W7 whole entry): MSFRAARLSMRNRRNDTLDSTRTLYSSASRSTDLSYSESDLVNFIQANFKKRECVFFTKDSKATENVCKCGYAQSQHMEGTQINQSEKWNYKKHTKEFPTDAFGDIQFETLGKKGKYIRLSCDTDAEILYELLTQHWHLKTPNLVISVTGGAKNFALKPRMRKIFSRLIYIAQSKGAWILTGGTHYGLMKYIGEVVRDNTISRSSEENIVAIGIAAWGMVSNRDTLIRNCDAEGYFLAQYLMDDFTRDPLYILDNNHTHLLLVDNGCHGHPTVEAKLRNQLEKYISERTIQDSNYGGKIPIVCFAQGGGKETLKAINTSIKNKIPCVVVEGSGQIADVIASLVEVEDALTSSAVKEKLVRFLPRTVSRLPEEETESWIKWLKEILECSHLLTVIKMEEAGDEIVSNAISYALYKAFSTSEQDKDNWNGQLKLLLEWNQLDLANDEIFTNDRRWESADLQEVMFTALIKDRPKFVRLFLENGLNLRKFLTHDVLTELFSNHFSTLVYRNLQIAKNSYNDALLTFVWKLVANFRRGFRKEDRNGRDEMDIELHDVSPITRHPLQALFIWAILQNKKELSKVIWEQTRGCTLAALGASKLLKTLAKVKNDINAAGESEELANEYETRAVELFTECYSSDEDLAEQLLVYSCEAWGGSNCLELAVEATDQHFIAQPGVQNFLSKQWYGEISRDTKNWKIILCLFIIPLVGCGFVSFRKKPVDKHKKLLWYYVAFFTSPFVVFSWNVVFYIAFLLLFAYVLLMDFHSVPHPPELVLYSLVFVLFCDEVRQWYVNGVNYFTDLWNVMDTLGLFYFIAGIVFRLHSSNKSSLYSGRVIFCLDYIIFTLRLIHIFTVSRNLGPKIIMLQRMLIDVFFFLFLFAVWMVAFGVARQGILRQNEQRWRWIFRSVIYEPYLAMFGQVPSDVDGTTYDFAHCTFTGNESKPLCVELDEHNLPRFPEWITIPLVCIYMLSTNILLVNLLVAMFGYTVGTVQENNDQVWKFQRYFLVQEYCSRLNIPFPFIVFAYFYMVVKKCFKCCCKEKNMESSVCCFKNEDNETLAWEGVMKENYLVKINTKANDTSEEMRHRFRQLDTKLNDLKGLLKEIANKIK

Regarding `Cc1cc(C(=O)N[C@]2(c3ccc(OC(F)(F)F)c(F)c3)CCOc3cccnc32)ncc1Br` [Example 166, (S)-5-bromo-N-(4-(3-fluoro-4-(trifluoromethoxy)phenyl)-3,4-dihydro-2H-pyrano[3,2-b]pyridin-4-yl)-4-methylpicolin amide], the IC50 (usually the concentration that inhibits the measured activity by half) was 10 nM.
As to `Cc1cc(C(=O)N[C@]2(c3ccc(OC(F)(F)F)c(F)c3)CCOc3cccnc32)ccc1Br` [Example 167, (S)-4-bromo-N-(4-(3-fluoro-4-(trifluoromethoxy)phenyl)-3,4-dihydro-2H-pyrano [3,2-b]pyridin-4-yl)-3-methylbenzamide], the IC50 stood at 19 nM.
With `CC1(C)COC(c2ccc(C(=O)N[C@]3(c4ccc(OC(F)(F)F)c(F)c4)CCOc4cccnc43)cc2)=N1` [Example 168, (S)-4-(4,4-dimethyl-4,5-dihydrooxazol-2-yl)-N-(4-(3-fluoro-4-(trifluoromethoxy)phenyl)-3,4-dihydro-2H-pyrano[3,2-b]pyridin-4-yl)benzamide], the IC50 worked out at 146 nM.
For the molecule `CCOC(=O)c1ccc(C(=O)N[C@]2(c3ccc(OC(F)(F)F)c(F)c3)CCOc3cccnc32)nc1C` [Example 169, (S)-ethyl 6-((4-(3-fluoro-4-(trifluoromethoxy)phenyl)-3,4-dihydro-2H-pyrano[3,2-b]pyridin-4-yl)carbamoyl)-2-methylnicotinate], the half-inhibitory concentration (IC50) was 32 nM.
Under `N#Cc1ccc(C(=O)N[C@]2(c3ccc(OC(F)(F)F)c(F)c3)CCOc3cccnc32)nc1` [Example 171, (S)-5-cyano-N-(4-(3-fluoro-4-(trifluoromethoxy)phenyl)-3,4-dihydro-2H-pyrano[3,2-b]pyridin-4-yl) picolinamide] stands 12 nM; under `COC(=O)c1ccc(C(=O)N[C@]2(c3ccc(C(F)(F)F)c(F)c3)CCOc3cccnc32)nc1` [Example 172, (S)-methyl 6-((4-(3-fluoro-4-(trifluoromethyl)phenyl)-3,4-dihydro-2H-pyrano[3,2-b]pyridin-4-yl)carbamoyl) nicotinate], 22 nM.
Under `O=C(N[C@]1(c2ccc(OC(F)(F)F)cc2F)CCOc2cccnc21)c1ccc(=O)[nH]c1` [Example 173, (S)-N-(4-(2-fluoro-4-(trifluoromethoxy)phenyl)-3,4-dihydro-2H-pyrano[3,2-b]pyridin-4-yl)-6-oxo-1,6-dihydropyridine-3-carboxamide] stands 475 nM.
As for `COC(=O)c1ccc(C(=O)N[C@]2(c3ccc(OC(F)(F)F)cc3F)CCOc3cccnc32)nc1` [Example 174, (S)-methyl 6-((4-(2-fluoro-4-(trifluoromethoxy)phenyl)-3,4-dihydro-2H-pyrano[3,2-b]pyridin-4-yl)carbamoyl) nicotinate], the IC50 turned out to be 128 nM.
Take `COC(=O)c1ccc(C(=O)N[C@]2(c3ccc(C(F)(F)F)cc3)CCOc3cccnc32)nc1` [Example 175, (S)-methyl 6-((4-(4-(trifluoromethyl)phenyl)-3,4-dihydro-2H-pyrano[3,2-b]pyridin-4-yl)carbamoyl) nicotinate]: the IC50 came to 43 nM.
Consider `COC(=O)c1ccc(C(=O)N[C@]2(c3ccc(OC(F)(F)F)cc3)CCOc3cccnc32)nc1` [Example 176, (S)-methyl 6-((4-(4-(trifluoromethoxy)phenyl)-3,4-dihydro-2H-pyrano[3,2-b]pyridin-4-yl)carbamoyl) nicotinate], for which the concentration for half-maximal inhibition (IC50) came out at 54 nM.
Under `O=C(O)c1cnc(C(=O)N[C@]2(c3ccc(OC(F)(F)F)c(F)c3)CCOc3cccnc32)cn1` [Example 177, (S)-5-((4-(3-fluoro-4-(trifluoromethoxy)phenyl)-3,4-dihydro-2H-pyrano[3,2-b]pyridin-4-yl)carbamoyl) pyrazine-2-carboxylic acid] stands 209 nM.
Under `O=C(O)c1cccc(C(=O)N[C@]2(c3ccc(OC(F)(F)F)c(F)c3)CCOc3cccnc32)c1` [Example 178, (S)-3-((4-(3-fluoro-4-(trifluoromethoxy)phenyl)-3,4-dihydro-2H-pyrano[3,2-b]pyridin-4-yl)carbamoyl) benzoic acid] stands 72 nM; under `Cn1cnc(C(=O)N[C@]2(c3ccc(OC(F)(F)F)c(F)c3)CCOc3cccnc32)c1` [Example 179, (S)-N-(4-(3-fluoro-4-(trifluoromethoxy)phenyl)-3,4-dihydro-2H-pyrano[3,2-b]pyridin-4-yl)-1-methyl-1H-imidazole-4-carboxamide], 305 nM; under `Cn1c(C(=O)N[C@]2(c3ccc(OC(F)(F)F)c(F)c3)CCOc3cccnc32)cnc1Br` [Example 180, (S)-2-bromo-N-(4-(3-fluoro-4-(trifluoromethoxy)phenyl)-3,4-dihydro-2H-pyrano[3,2-b]pyridin-4-yl)-1-methyl-1H-imidazole-5-carboxamide], 32 nM.
Turning to `COC(=O)c1c(C)cc(C(=O)N[C@]2(c3ccc(OC(F)(F)F)c(F)c3)CCOc3cccnc32)cc1C` [Example 181, (S)-methyl 4-((4-(3-fluoro-4-(trifluoromethoxy)phenyl)-3,4-dihydro-2H-pyrano[3,2-b]pyridin-4-yl)carbamoyl)-2,6-dimethylbenzoate], the IC50 was found to be 14 nM.
Turning to `COC(=O)c1cc(C(=O)N[C@]2(c3ccc(OC(F)(F)F)c(F)c3)CCOc3cccnc32)ccc1OC` [Example 182, (S)-methyl 5-((4-(3-fluoro-4-(trifluoromethoxy)phenyl)-3,4-dihydro-2H-pyrano[3,2-b]pyridin-4-yl)carbamoyl)-2-methoxybenzoate], the half-maximal inhibitory concentration (IC50) is 36 nM.
On to `COC(=O)c1ccc(C(=O)N[C@]2(c3ccc(Cl)c(Cl)c3)CCOc3cccnc32)nc1` [Example 183, (S)-methyl 6-((4-(3,4-dichlorophenyl)-3,4-dihydro-2H-pyrano[3,2-b]pyridin-4-yl)carbamoyl) nicotinate], for which the half-maximal inhibitory concentration (IC50) is 21 nM.
As for `NS(=O)(=O)c1ccc(C(=O)N[C@]2(c3ccc(OC(F)(F)F)c(F)c3)CCOc3cccnc32)cc1` [Example 184, (S)-N-(4-(3-fluoro-4-(trifluoromethoxy)phenyl)-3,4-dihydro-2H-pyrano[3,2-b]pyridin-4-yl)-sulfamoylbenzamide], the IC50 was determined as 50 nM.
On to `O=C(N[C@]1(c2ccc(F)c(C(F)(F)F)c2)CCOc2cccnc21)c1ccc(=O)[nH]c1` [Example 185, (S)-N-(4-(4-fluoro-3-(trifluoromethyl)phenyl)-3,4-dihydro-2H-pyrano[3,2-b]pyridin-4-yl)-6-oxo-1,6-dihydropyridine-3-carboxamide], for which the half-inhibitory concentration (IC50) is 89 nM.
Under `COc1c(C(=O)O)cccc1C(=O)N[C@]1(c2ccc(OC(F)(F)F)c(F)c2)CCOc2cccnc21` [Example 186, (S)-3-((4-(3-fluoro-4-(trifluoromethoxy)phenyl)-3,4-dihydro-2H-pyrano[3,2-b]pyridin-4-yl)carbamoyl)-2-methoxybenzoic acid] stands 66 nM; under `CCOC(=O)c1cc(C(=O)N[C@]2(c3ccc(OC(F)(F)F)c(F)c3)CCOc3cccnc32)c[nH]1` [Example 187, (S)-ethyl 4-((4-(3-fluoro-4-(trifluoromethoxy)phenyl)-3,4-dihydro-2H-pyrano[3,2-b]pyridin-4-yl)carbamoyl)-1H-pyrrole-2-carboxylate], 54 nM.
For `COC(=O)c1ccc(C(=O)N[C@]2(c3ccc(OC(F)(F)F)c(F)c3)CCOc3cccnc32)cc1N` [Example 188, (S)-methyl 2-amino-4-((4-(3-fluoro-4-(trifluoromethoxy)phenyl)-3,4-dihydro-2H-pyrano[3,2-b]pyridin-4-yl)carbamoyl) benzoate], the IC50 was found to be 15 nM.
Under `O=C(N[C@]1(c2ccc(OC(F)(F)F)c(F)c2)CCOc2cccnc21)c1ncco1` [Example 189, (S)-N-(4-(3-fluoro-4-(trifluoromethoxy)phenyl)-3,4-dihydro-2H-pyrano[3,2-b]pyridin-4-yl) oxazole-2-carboxamide] stands 134 nM; under `O=C(N[C@]1(c2ccc(OC(F)(F)F)c(F)c2)CCOc2cccnc21)c1cnsc1` [Example 190, (S)-N-(4-(3-fluoro-4-(trifluoromethoxy)phenyl)-3,4-dihydro-2H-pyrano[3,2-b]pyridin-4-yl) isothiazole-4-carboxamide], 152 nM; under `CCc1cc(C(=O)N[C@]2(c3ccc(OC(F)(F)F)c(F)c3)CCOc3cccnc32)ccc1C(=O)OC` [Example 191, (S)-methyl 2-ethyl-4-((4-(3-fluoro-4-(trifluoromethoxy)phenyl)-3,4-dihydro-2H-pyrano[3,2-b]pyridin-4-yl)carbamoyl) benzoate], 11 nM.
On to `CCOC(=O)c1cc(C(=O)N[C@]2(c3ccc(OC(F)(F)F)c(F)c3)CCOc3cccnc32)cc(C(=O)OCC)c1` [Example 192, (S)-diethyl 5-((4-(3-fluoro-4-(trifluoromethoxy)phenyl)-3,4-dihydro-2H-pyrano[3,2-b]pyridin-4-yl)carbamoyl) isophthalate], for which the half-inhibitory concentration (IC50) was found to be 94 nM.
As for `COC(=O)c1ccn(CC(=O)N[C@]2(c3ccc(OC(F)(F)F)c(F)c3)CCOc3cccnc32)c1` [Example 193, (S)-melhyl 1-(2-((4-(3-fluoro-4-(trifluoromethoxy)phenyl)-3,4-dihydro-2H-pyrano[3,2-b]pyridin-4-yl)amino)-2-oxoethyl)-1H-pyrrole-3-carboxylate], the IC50 worked out at 584 nM.
In the case of `O=C(N[C@]1(c2ccc(Cl)c(Cl)c2)CCOc2cccnc21)c1ccc(=O)[nH]c1` [Example 194, (S)-N-(4-(3,4-dichlorophenyl)-3,4-dihydro-2H-pyrano[3,2-b]pyridin-4-yl)-6-oxo-1,6-dihydropyridine-3-carboxamide], the IC50 worked out at 44 nM.
Consider `NC(=O)c1ccc(C(=O)N[C@]2(c3ccc(OC(F)(F)F)c(F)c3)CCOc3cccnc32)cc1` [Example 195, (S)-N1-(4-(3-fluoro-4-(trifluoromethoxy)phenyl)-3,4-dihydro-2H-pyrano[3,2-b]pyridin-4-yl) terephthalamide 2,2,2-trifluoroacetate], for which the IC50 was 6 nM.
